According to ChEMBL document CHEMBL1133867, “Design, synthesis, and SAR of heterocycle-containing antagonists of the human CCR5 receptor for the treatment of HIV-1 infection” (Bioorg Med Chem Lett, 2001):
pIC50: −log10 of the molar value.

Molecular target: C-C chemokine receptor type 2 (Homo sapiens, UniProt P41597)
Assay: Compound was evaluated for its inhibitory activity against C-C chemokine receptor type 2
Conditions: not given

Sequence of C-C chemokine receptor type 2 (P41597 whole entry): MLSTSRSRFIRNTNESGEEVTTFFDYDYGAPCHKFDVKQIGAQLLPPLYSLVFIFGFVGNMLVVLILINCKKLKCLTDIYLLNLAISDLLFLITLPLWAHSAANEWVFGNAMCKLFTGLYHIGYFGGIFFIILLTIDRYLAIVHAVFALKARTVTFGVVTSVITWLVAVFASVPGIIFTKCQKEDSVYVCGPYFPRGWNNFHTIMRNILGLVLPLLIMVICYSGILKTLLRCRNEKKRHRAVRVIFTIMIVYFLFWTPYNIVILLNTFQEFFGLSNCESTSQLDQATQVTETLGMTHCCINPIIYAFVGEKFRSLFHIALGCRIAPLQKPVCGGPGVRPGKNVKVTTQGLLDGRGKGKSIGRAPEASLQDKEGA

SMILES	pIC50
C=CCN(C(=O)OCc1ccccc1)C1CCN(CCC(Cn2cnc3ccccc32)c2ccccc2)CC1 (stereo not drawn)	< 6.00
C=CCN(C(=O)OCc1ccc([N+](=O)[O-])cc1)C1CCN(CCC(C)(Cn2cnc3ccccc32)c2ccccc2)CC1 (stereo not drawn)	< 6.00
C=CCN(C(=O)OCc1ccccc1)C1CCN(CCC(C)(Cn2cnc3ccccc32)c2ccccc2)CC1 (stereo not drawn)	< 6.00
C=CCN(C(=O)OCc1ccc([N+](=O)[O-])cc1)C1CCN(CCC(Cn2cnc3ccccc32)c2ccccc2)CC1 (stereo not drawn)	< 6.00
C=CCN(C(=O)OCc1ccc([N+](=O)[O-])cc1)C1CCN(CCC(Cn2c(CC)nc3ccccc32)c2ccccc2)CC1 (stereo not drawn)	< 6.00
C=CCN(C(=O)OCc1ccccc1)C1CCN(CCC(Cn2c(CC)nc3ccccc32)c2ccccc2)CC1 (stereo not drawn)	< 6.00

Molecular target: T1, C-C chemokine receptor type 5 (Homo sapiens, UniProt P51681)
Assay: Binding affinity against human CCR5 receptor stably expressed in Chinese hamster ovary (CHO) cells using [125I]-MIP-1 alpha as the radioligand
Type: cell-based
Conditions: not given

T1 sequence (P51681 whole entry): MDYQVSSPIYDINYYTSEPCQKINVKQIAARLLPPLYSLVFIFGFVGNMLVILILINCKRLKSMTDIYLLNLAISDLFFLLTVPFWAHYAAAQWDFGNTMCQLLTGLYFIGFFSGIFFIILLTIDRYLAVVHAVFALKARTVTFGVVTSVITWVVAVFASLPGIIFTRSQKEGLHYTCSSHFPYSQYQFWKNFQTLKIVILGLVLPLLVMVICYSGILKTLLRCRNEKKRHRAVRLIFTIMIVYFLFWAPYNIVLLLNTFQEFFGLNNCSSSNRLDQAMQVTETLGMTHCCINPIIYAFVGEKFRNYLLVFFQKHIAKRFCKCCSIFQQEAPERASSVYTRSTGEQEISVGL

SMILES	pIC50
CN(C[C@@H](CCN1CCC2(CC1)C[S+]([O-])c1ccccc12)c1cccc(Cl)c1)S(=O)(=O)c1ccccc1 (stereo partly drawn)	7.46

Molecular target: T2, C-C chemokine receptor type 1 (Homo sapiens, UniProt P32246)
T2 sequence (P32246 whole entry): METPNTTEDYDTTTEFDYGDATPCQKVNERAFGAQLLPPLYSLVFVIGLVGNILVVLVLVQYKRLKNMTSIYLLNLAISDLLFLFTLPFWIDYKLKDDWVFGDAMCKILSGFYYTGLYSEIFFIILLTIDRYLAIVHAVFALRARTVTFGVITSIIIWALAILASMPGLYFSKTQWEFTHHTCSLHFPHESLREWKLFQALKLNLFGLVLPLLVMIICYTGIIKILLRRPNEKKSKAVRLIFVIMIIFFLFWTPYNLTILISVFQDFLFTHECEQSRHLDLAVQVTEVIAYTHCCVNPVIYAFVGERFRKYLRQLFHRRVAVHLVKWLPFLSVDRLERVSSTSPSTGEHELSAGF
Assay: Compound was evaluated for inhibitory activity against C-C chemokine receptor type 1
Conditions: not given

SMILES	pIC50
C=CCN(C(=O)OCc1ccccc1)C1CCN(CCC(Cn2cnc3ccccc32)c2ccccc2)CC1 (stereo not drawn)	< 6.00
C=CCN(C(=O)OCc1ccc([N+](=O)[O-])cc1)C1CCN(CCC(C)(Cn2cnc3ccccc32)c2ccccc2)CC1 (stereo not drawn)	< 6.00
C=CCN(C(=O)OCc1ccccc1)C1CCN(CCC(C)(Cn2cnc3ccccc32)c2ccccc2)CC1 (stereo not drawn)	< 6.00
C=CCN(C(=O)OCc1ccc([N+](=O)[O-])cc1)C1CCN(CCC(Cn2cnc3ccccc32)c2ccccc2)CC1 (stereo not drawn)	< 6.00
C=CCN(C(=O)OCc1ccc([N+](=O)[O-])cc1)C1CCN(CCC(Cn2c(CC)nc3ccccc32)c2ccccc2)CC1 (stereo not drawn)	< 6.00
C=CCN(C(=O)OCc1ccccc1)C1CCN(CCC(Cn2c(CC)nc3ccccc32)c2ccccc2)CC1 (stereo not drawn)	< 6.00

Molecular target: T3, C-C chemokine receptor type 4 (Homo sapiens, UniProt P51679)
T3 sequence (P51679 whole entry): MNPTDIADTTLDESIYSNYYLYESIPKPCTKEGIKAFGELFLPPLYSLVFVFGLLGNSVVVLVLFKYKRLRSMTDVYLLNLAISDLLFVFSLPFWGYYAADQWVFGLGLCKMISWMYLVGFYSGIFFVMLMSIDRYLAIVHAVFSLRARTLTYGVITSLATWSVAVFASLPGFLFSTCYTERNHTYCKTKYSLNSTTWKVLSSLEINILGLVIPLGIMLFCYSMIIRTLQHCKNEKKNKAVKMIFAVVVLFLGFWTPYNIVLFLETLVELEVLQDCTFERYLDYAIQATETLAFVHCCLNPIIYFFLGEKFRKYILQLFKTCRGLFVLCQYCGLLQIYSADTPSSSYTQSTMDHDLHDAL
Assay: Compound was evaluated for its inhibitory activity against C-C chemokine receptor type 4
Conditions: not given

SMILES	pIC50
C=CCN(C(=O)OCc1ccccc1)C1CCN(CCC(Cn2cnc3ccccc32)c2ccccc2)CC1 (stereo not drawn)	< 6.00
C=CCN(C(=O)OCc1ccc([N+](=O)[O-])cc1)C1CCN(CCC(C)(Cn2cnc3ccccc32)c2ccccc2)CC1 (stereo not drawn)	< 6.00
C=CCN(C(=O)OCc1ccccc1)C1CCN(CCC(C)(Cn2cnc3ccccc32)c2ccccc2)CC1 (stereo not drawn)	< 6.00
C=CCN(C(=O)OCc1ccc([N+](=O)[O-])cc1)C1CCN(CCC(Cn2cnc3ccccc32)c2ccccc2)CC1 (stereo not drawn)	< 6.00
C=CCN(C(=O)OCc1ccc([N+](=O)[O-])cc1)C1CCN(CCC(Cn2c(CC)nc3ccccc32)c2ccccc2)CC1 (stereo not drawn)	< 6.00
C=CCN(C(=O)OCc1ccccc1)C1CCN(CCC(Cn2c(CC)nc3ccccc32)c2ccccc2)CC1 (stereo not drawn)	< 6.00

Molecular target: T1, C-C chemokine receptor type 5
Assay: Binding affinity against C-C chemokine receptor type 5 stably expressed in Chinese hamster ovary (CHO) cells using [125I]-MIP-1 alpha as the radioligand
Type: cell-based
Conditions: not given

SMILES	pIC50
C=CCN(C(=O)OCc1ccc([N+](=O)[O-])cc1)C1CCN(CCC(Cn2nnc(-c3ccccc3)n2)c2ccccc2)CC1 (stereo not drawn)	6.95
C=CCN(C(=O)OCc1ccccc1)C1CCN(CCC(Cn2cnc3ccccc32)c2ccccc2)CC1 (stereo not drawn)	7.60
C=CCN(C(=O)OCc1ccc([N+](=O)[O-])cc1)C1CCN(CCC(Cn2nnnc2-c2ccccc2)c2ccccc2)CC1 (stereo not drawn)	6.47
C=CCN(C(=O)OCc1ccc([N+](=O)[O-])cc1)C1CCN(CCC(C)(Cn2cnc3ccccc32)c2ccccc2)CC1 (stereo not drawn)	8.00
C=CCN(C(=O)OCc1ccc([N+](=O)[O-])cc1)C1CCN(CCC(Cn2cnc(Cl)c2Cl)c2ccccc2)CC1 (stereo not drawn)	7.80
C=CCN(C(=O)OCc1ccc([N+](=O)[O-])cc1)C1CCN(CCC(Cn2cncn2)c2ccccc2)CC1 (stereo not drawn)	7.55
C=CCN(C(=O)OCc1ccccc1)C1CCN(CCC(C)(Cn2cnc3ccccc32)c2ccccc2)CC1 (stereo not drawn)	6.95
C=CCN(C(=O)OCc1ccc([N+](=O)[O-])cc1)C1CCN(CCC(Cn2cc3ccccc3n2)c2ccccc2)CC1 (stereo not drawn)	7.57
C=CCN(C(=O)OCc1ccc([N+](=O)[O-])cc1)C1CCN(CCC(Cn2cnc3ccccc32)c2ccccc2)CC1 (stereo not drawn)	8.40
C=CCN(C(=O)OCc1ccc([N+](=O)[O-])cc1)C1CCN(CCC(Cn2cnc(CC#N)c2)c2ccccc2)CC1 (stereo not drawn)	7.82
C=CCN(C(=O)OCc1ccc([N+](=O)[O-])cc1)C1CCN(CCC(Cn2c(CC)nc3ccccc32)c2ccccc2)CC1 (stereo not drawn)	7.32
C=CCN(C(=O)OCc1ccc([N+](=O)[O-])cc1)C1CCN(CCC(Cn2cnc(-c3ccccc3)c2)c2ccccc2)CC1 (stereo not drawn)	7.64
C=CCN(C(=O)OCc1ccccc1)C1CCN(CCC(Cn2c(CC)nc3ccccc32)c2ccccc2)CC1 (stereo not drawn)	6.61
C=CCN(C(=O)OCc1ccc([N+](=O)[O-])cc1)C1CCN(CCC(Cn2cnc([N+](=O)[O-])c2)c2ccccc2)CC1 (stereo not drawn)	7.82
C=CCN(C(=O)OCc1ccc([N+](=O)[O-])cc1)C1CCN(CCC(Cn2ncc3ccccc32)c2ccccc2)CC1 (stereo not drawn)	7.82
C=CCN(C(=O)OCc1ccccc1)C1CCN(CCC(C)(c2ccccc2)C2Nc3ccccc3S(=O)(=O)N2)CC1 (single isomer, unassigned)	7.26
C=CCN(C(=O)OCc1ccc([N+](=O)[O-])cc1)C1CCN(CCC(C)(c2ccccc2)C2c3ccccc3C(=O)N2CC)CC1 (single isomer, unassigned; form 1)	7.74
C=CCN(C(=O)OCc1ccc([N+](=O)[O-])cc1)C1CCN(CCC(C)(c2ccccc2)C2c3ccccc3C(=O)N2CC)CC1 (single isomer, unassigned; form 2)	8.00
C=CCN(C(=O)OCc1ccccc1)C1CCN(CCC(C)(c2ccccc2)C2Nc3ccccc3S(=O)(=O)N2)CC1 (stereo in doubt)	7.74

System: HeLa
Assay: Antiviral activity against HeLa Magi cells expressing both CXCR4 and CCR5 in a 48 hr single cycle HIV (BAL) infection assay
Type: functional
Conditions: Homo sapiens

SMILES	IC90 [nM]
C=CCN(C(=O)OCc1ccccc1)C1CCN(CCC(Cn2cnc3ccccc32)c2ccccc2)CC1 (stereo not drawn)	> 3000
C=CCN(C(=O)OCc1ccc([N+](=O)[O-])cc1)C1CCN(CCC(C)(Cn2cnc3ccccc32)c2ccccc2)CC1 (stereo not drawn)	1000
C=CCN(C(=O)OCc1ccc([N+](=O)[O-])cc1)C1CCN(CCC(Cn2cnc3ccccc32)c2ccccc2)CC1 (stereo not drawn)	1000
C=CCN(C(=O)OCc1ccc([N+](=O)[O-])cc1)C1CCN(CCC(Cn2c(CC)nc3ccccc32)c2ccccc2)CC1 (stereo not drawn)	3000

Molecular target: T4, C-C chemokine receptor type 3 (Homo sapiens, UniProt P51677)
T4 sequence (P51677 whole entry): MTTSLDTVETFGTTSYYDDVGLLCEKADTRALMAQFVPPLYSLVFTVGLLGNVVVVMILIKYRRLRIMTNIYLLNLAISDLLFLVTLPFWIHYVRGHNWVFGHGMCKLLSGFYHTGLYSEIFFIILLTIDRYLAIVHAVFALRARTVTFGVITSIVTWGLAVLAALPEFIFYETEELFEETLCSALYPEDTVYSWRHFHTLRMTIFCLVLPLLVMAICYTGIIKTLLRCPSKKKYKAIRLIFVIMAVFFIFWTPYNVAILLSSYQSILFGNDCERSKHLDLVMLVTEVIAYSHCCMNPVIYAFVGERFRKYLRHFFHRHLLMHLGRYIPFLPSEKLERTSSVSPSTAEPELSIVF
Assay: Compound was evaluated for its inhibitory activity against C-C chemokine receptor type 3
Conditions: not given

SMILES	pIC50
C=CCN(C(=O)OCc1ccccc1)C1CCN(CCC(Cn2cnc3ccccc32)c2ccccc2)CC1 (stereo not drawn)	< 6.00
C=CCN(C(=O)OCc1ccc([N+](=O)[O-])cc1)C1CCN(CCC(C)(Cn2cnc3ccccc32)c2ccccc2)CC1 (stereo not drawn)	< 6.00
C=CCN(C(=O)OCc1ccccc1)C1CCN(CCC(C)(Cn2cnc3ccccc32)c2ccccc2)CC1 (stereo not drawn)	< 6.00
C=CCN(C(=O)OCc1ccc([N+](=O)[O-])cc1)C1CCN(CCC(Cn2cnc3ccccc32)c2ccccc2)CC1 (stereo not drawn)	< 6.00
C=CCN(C(=O)OCc1ccc([N+](=O)[O-])cc1)C1CCN(CCC(Cn2c(CC)nc3ccccc32)c2ccccc2)CC1 (stereo not drawn)	< 6.00
C=CCN(C(=O)OCc1ccccc1)C1CCN(CCC(Cn2c(CC)nc3ccccc32)c2ccccc2)CC1 (stereo not drawn)	< 6.00

System: not listed separately
Assay: Oral bioavailability in rat
Type: ADME, organism-based
Conditions: in vivo

SMILES	bioavailability [%]
C=CCN(C(=O)OCc1ccccc1)C1CCN(CCC(C)(CN2C(=O)N[C@H](Cc3c[nH]c4ccccc34)C2=O)c2ccccc2)CC1 (stereo partly drawn)	1
C=CCN(C(=O)OCc1ccc([N+](=O)[O-])cc1)C1CCN(CCC(Cn2cnc3ccccc32)c2ccccc2)CC1 (stereo not drawn)	14

Molecular target: C-X-C chemokine receptor type 4 (Homo sapiens, UniProt P61073)
Assay: Compound was evaluated for its inhibitory activity against C-X-C chemokine receptor type 4
Conditions: not given

Sequence of C-X-C chemokine receptor type 4 (P61073 whole entry): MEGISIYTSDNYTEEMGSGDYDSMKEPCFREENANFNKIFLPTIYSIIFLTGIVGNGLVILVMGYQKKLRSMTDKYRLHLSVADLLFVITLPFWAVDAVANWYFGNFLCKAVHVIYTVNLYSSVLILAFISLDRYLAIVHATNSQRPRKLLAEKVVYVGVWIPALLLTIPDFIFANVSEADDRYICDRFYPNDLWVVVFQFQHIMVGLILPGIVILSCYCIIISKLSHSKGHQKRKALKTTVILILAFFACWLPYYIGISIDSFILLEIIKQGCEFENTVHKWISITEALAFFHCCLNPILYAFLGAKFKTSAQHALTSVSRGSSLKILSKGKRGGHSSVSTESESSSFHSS

SMILES	pIC50
C=CCN(C(=O)OCc1ccccc1)C1CCN(CCC(Cn2cnc3ccccc32)c2ccccc2)CC1 (stereo not drawn)	< 6.00
C=CCN(C(=O)OCc1ccc([N+](=O)[O-])cc1)C1CCN(CCC(C)(Cn2cnc3ccccc32)c2ccccc2)CC1 (stereo not drawn)	< 6.00
C=CCN(C(=O)OCc1ccccc1)C1CCN(CCC(C)(Cn2cnc3ccccc32)c2ccccc2)CC1 (stereo not drawn)	< 6.00
C=CCN(C(=O)OCc1ccc([N+](=O)[O-])cc1)C1CCN(CCC(Cn2cnc3ccccc32)c2ccccc2)CC1 (stereo not drawn)	< 6.00
C=CCN(C(=O)OCc1ccc([N+](=O)[O-])cc1)C1CCN(CCC(Cn2c(CC)nc3ccccc32)c2ccccc2)CC1 (stereo not drawn)	< 6.00
C=CCN(C(=O)OCc1ccccc1)C1CCN(CCC(Cn2c(CC)nc3ccccc32)c2ccccc2)CC1 (stereo not drawn)	< 6.00

System: not listed separately
Assay: Clearance in rat.
Type: ADME, organism-based
Conditions: in vivo

SMILES	clearance [mL/min/kg]
C=CCN(C(=O)OCc1ccccc1)C1CCN(CCC(C)(CN2C(=O)N[C@H](Cc3c[nH]c4ccccc34)C2=O)c2ccccc2)CC1 (stereo partly drawn)	84
C=CCN(C(=O)OCc1ccc([N+](=O)[O-])cc1)C1CCN(CCC(Cn2cnc3ccccc32)c2ccccc2)CC1 (stereo not drawn)	49
